Patent US20120010292A1, “MODIFICATION I OF 4-(PHENYL)ETHYL]-AMINO}METHYL)BENZOIC ACID” (BAYER SCHERING PHARMA AKTIENGESELLSCHAFT, priority 2008, published 2012)

Experiment: Stability of the crystal modification (thermodynamic and storage stability)
Format: physicochemical
Conditions: for thermodynamic stability of the crystal modification: solid form of the compound of the formula (I)

Row | storage stability (even after processing to suspensions) | thermodynamic stability of the crystal modification | SMILES
1 | storage-stable | thermodynamically stable | O=C(O)CCCCN(CCc1ccccc1OCc1ccc(CCc2ccccc2)cc1)Cc1ccc(C(=O)O)cc1 [modification I, 4-({(4-carboxybutyl)[2-(2-{[4-(2-phenylethyl)benzyl]oxy}phenyl)ethyl]amino}-methyl)benzoic acid]
2 |  | metastable | O=C(O)CCCCN(CCc1ccccc1OCc1ccc(CCc2ccccc2)cc1)Cc1ccc(C(=O)O)cc1 [modification IV, 4-({(4-Carboxybutyl)[2-(2-{[4-(2-phenylethyl)benzyl]oxy}phenyl)ethyl]amino}methyl)benzoic acid]
